In patent publication US20250074871A1, “PHENETHYLAMINES AND METHODS OF PREPARATION THEREOF” (priority 2022, published 2025):
Like-named read-outs stand apart in the source and are kept apart here.

What was measured:
Assay type in all cases: cell-based
5-HT2B receptor = target: T1, 5-HT2B receptor (Homo sapiens, UniProt P41595); assay: 5-HT2B Gq dissociation BRET functional assay; conditions: Table 2; for EC50: at least three replicate trials; for 5-HT2B BRET Eff %: normalized to % 5-HT stimulation
T1 construct: expressed in transfected cells; host or cells: HEK293T

5-HT2C receptor = target: T2, 5-HT2C receptor (Homo sapiens, UniProt P28335); assay: cell-based; conditions: Table 2; for EC50: at least three replicate trials, read-out: 5-HT2C BRET EC50; for 5-HT2C BRET Eff %: normalized to % 5-HT stimulation
T2 construct: expressed in transfected cells; host or cells: HEK293T
T2 sequence (P28335 33-458): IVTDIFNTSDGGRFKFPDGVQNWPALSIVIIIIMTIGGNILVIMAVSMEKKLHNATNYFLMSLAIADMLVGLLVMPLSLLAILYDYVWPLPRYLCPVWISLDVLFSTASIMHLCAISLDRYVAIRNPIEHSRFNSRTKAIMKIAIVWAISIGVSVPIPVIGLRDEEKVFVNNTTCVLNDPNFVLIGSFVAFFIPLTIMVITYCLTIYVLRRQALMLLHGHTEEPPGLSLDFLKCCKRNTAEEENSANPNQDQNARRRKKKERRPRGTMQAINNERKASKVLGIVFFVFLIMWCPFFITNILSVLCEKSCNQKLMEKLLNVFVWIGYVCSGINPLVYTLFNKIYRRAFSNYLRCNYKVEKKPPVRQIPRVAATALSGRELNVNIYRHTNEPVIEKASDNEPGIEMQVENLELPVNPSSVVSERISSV

5-HT2A receptor = target: T3, 5-HT2A receptor (Homo sapiens, UniProt P28223); assay: 5-HT2A Gq dissociation BRET functional assay; conditions: Table 2; for EC50: at least three replicate trials; for 5-HT2A BRET Eff %: normalized to % 5-HT stimulation
T3 construct: expressed in transfected cells; host or cells: HEK293T
T3 sequence (P28223 whole entry): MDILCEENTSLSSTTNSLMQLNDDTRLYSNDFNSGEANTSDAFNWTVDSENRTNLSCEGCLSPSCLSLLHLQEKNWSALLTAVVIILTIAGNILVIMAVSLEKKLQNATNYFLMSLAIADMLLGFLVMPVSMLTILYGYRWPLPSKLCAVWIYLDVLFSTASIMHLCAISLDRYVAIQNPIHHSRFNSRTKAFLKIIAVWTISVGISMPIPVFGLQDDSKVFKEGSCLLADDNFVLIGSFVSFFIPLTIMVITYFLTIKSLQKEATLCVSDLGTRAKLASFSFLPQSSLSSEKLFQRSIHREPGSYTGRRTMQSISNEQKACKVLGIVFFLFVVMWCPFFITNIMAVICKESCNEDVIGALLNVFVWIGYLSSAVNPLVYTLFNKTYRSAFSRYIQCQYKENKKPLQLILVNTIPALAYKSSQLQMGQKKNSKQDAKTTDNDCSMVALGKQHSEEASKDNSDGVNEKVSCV

T1 sequence (P41595 whole entry): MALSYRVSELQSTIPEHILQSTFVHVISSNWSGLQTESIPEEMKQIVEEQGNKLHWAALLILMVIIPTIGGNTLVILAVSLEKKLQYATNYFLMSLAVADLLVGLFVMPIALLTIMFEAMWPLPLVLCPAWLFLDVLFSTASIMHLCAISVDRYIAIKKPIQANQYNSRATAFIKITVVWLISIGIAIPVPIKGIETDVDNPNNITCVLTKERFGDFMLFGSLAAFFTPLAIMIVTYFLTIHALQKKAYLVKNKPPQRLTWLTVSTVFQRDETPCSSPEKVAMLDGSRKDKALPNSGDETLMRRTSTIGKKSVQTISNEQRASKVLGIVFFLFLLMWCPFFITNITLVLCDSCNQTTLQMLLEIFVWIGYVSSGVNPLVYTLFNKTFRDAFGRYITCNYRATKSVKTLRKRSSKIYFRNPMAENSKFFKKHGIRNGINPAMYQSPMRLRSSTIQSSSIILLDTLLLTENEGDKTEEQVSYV

| Compound | 5-HT2B BRET EC50 (nM) / Eff % (5-HT2B receptor) | EC50 (5-HT2C receptor) [nM] | 5-HT2C BRET Eff % (5-HT2C receptor) [%] | EC50 (5-HT2A receptor; 5-HT2A BRET EC50 (nM)) [nM] | 5-HT2A BRET Eff % (5-HT2A receptor) [%] | EC50 (5-HT2A receptor; read-out: 5-HT2A BRET EC50) [nM] | EC50 (5-HT2B receptor; read-out: 5-HT2B BRET EC50) [nM] | 5-HT2B BRET Eff % (5-HT2B receptor) [%] | EC50 (5-HT2B receptor; 5-HT2B BRET EC50 (nM)) [nM] | 5-HT2C BRET EC50 (nM) / Eff % (merged cell, word) (5-HT2C receptor) |
| --- | --- | --- | --- | --- | --- | --- | --- | --- | --- | --- |
| COc1ccc(CCNCc2ccccc2O)c(OC)c1 [Cpd #96, reference compound] | Inactive | 7.2 | 109 | 2.3 | 95 |  |  |  |  |  |
| COc1cc(-c2cnoc2)ccc1CCNCc1ccccc1Cl [Cpd #101] | Inactive | 9520 | 116 |  | 65 | 270 |  |  |  |  |
| COc1cc(-c2ncco2)ccc1CCNCc1ccccc1Cl [Cpd #102] |  | 1640 | 101 |  | 61 | 2090 | 5370 | 143 |  |  |
| COc1cc(-c2ncccn2)ccc1CCNCc1ccccc1Cl [Cpd #104] | Inactive | 5690 | 106 |  | 71 | 4890 |  |  |  |  |
| COc1cc(-c2cncnc2)ccc1CCNCc1ccccc1Cl [Cpd #105] | Inactive | 1490 | 107 |  | 86 | 1610 |  |  |  |  |
| COc1cc(C#N)ccc1CCNCc1ccccc1O [Cpd #113] |  | 30.3 | 102 | 4.9 | 90 |  |  | 34 | 1290 |  |
| N#Cc1ccc(CCNCc2ccccc2O)cc1 [Cpd #114] |  | 322 | 92 |  | 88 | 154 | 6490 | 11 |  |  |
| N#Cc1ccc(CCNCc2ccccc2O)c(OC(F)(F)F)c1 [Cpd #115] | Inactive | 380 | 104 | 212 | 94 |  |  |  |  |  |
| Oc1cc(C(F)(F)F)ccc1CCNCc1ccccc1O [Cpd #116] | Inactive | 1.7 | 100 | 1 | 89 |  |  |  |  |  |
| COc1ccc(CCNCc2ccccc2SC)c(O)c1 [Cpd #119] |  | 114 | 119 | 4.6 | 100 |  |  | 108 | 2540 |  |
| CSc1ccccc1CNCCc1ccc(O)cc1O [Cpd #120] | Inactive |  |  |  | 90 | 518 |  |  |  | Inactive |
| CSc1ccc(CCNCc2ccccc2SC)c(O)c1 [Cpd #121] |  | 44.1 | 110 | 3.6 | 94 |  |  | 89 | 175 |  |
| CSc1ccccc1CNCCc1ccc(C(F)F)cc1O [Cpd #123] |  | 30 | 120 | 3.2 | 96 |  |  | 95 | 6720 |  |
| N#Cc1ccc(CCNCc2ccccc2OC(F)(F)F)c(O)c1 [Cpd #124] |  | 21.1 | 98 |  | 83 | 159 | 453 | 97 |  |  |
| CCCCCc1ccc(CCNCc2ccccc2O)c(OC)c1 [Cpd #125] | Inactive | 55.8 | 105 | 13.5 | 96 |  |  |  |  |  |
| COc1cc(Cc2ccccc2)ccc1CCNCc1ccccc1O [Cpd #126] |  | 3.8 | 111 |  | 99 | 1.2 | 0.02 | −23 |  |  |
